Reference: ChEMBL document CHEMBL4304800, “C4-Phenylthio β-lactams: Effect of the chirality of the β-lactam ring on antimicrobial activity” (2019)
In brackets after ≈: the same amount, converted by molar mass. Activity calls are given as the source filed them. No cut-off for these calls is given here.

How the values were obtained:
[1] = test system: Mycobacterium tuberculosis; assay: Antitubercular activity against serine beta-lactamase producing Mycobacterium tuberculosis H37Rv after 14 days in presence of GAST/Fe medium by eleven fold serial dilution method; assay type: functional; conditions: 336 h
Moraxella catarrhalis = assay: Bactericidal activity against serine beta-lactamase producing Moraxella catarrhalis incubated in MH broth for 24 to 48 hrs by microbroth dilution method; assay type: functional
[2] = test system: Mycobacterium tuberculosis; assay: Antitubercular activity against serine beta-lactamase producing Mycobacterium tuberculosis H37Rv after 14 days in presence of middlebrook 7H9/BSA medium by eleven fold serial dilution method; assay type: functional; conditions: 336 h
[3] = test system: Mycobacterium tuberculosis; assay: Antitubercular activity against clinical drug sensitive Mycobacterium tuberculosis K14b00DS after 14 days in presence of middlebrook 7H9/BSA medium by eleven fold serial dilution method; assay type: functional; conditions: 336 h
[4] = test system: Mycobacterium tuberculosis; assay: (§1) Bactericidal activity against serine beta-lactamase producing Mycobacterium tuberculosis H37Rv assessed as induction of microbial kill at MIC preincubated in middlebrook 7H9 medium for 7 days and further incubated in middlebrook 7H11/BSA supplemented with OADC for 3 weeks by serial dilution based colony counting method; assay type: functional
[5] = test system: Mycobacterium tuberculosis; assay: as §1, with “reduction in” for “induction of”, “cell number” for “kill”; assay type: functional, organism-based

Row | Structure (SMILES) | MIC99 [1] [µg/mL] | MBC (Moraxella catarrhalis) [µg/mL] | MIC (Moraxella catarrhalis) [µg/mL] | MIC99 [2] [µg/mL] | MIC [3] [µg/mL] | LCK [4] | Activity [5]
1 | O=C1CC(Sc2ccc(F)c(Cl)c2)N1 (racemic) | 0.7 |  |  |  |  |  | 
2 | C[C@@H](NC(=O)N1C(=O)C[C@@H]1Sc1ccc(C(F)(F)F)cc1)c1ccccc1 |  | 200 (≈ 507 µM) | 200 (≈ 507 µM) | 100 |  |  | 
3 | C[C@@H](NC(=O)N1C(=O)C[C@H]1Sc1ccc(F)cc1)c1ccccc1 | 25 | 25 (≈ 72.6 µM) | 25 (≈ 72.6 µM) | 50 |  |  | 
4 | C[C@H](NC(=O)N1C(=O)C[C@@H]1Sc1ccc(F)cc1)c1ccccc1 | 12.5 | 50 (≈ 145 µM) | 25 (≈ 72.6 µM) | 50 |  |  | 
5 | C[C@H](NC(=O)N1C(=O)C[C@H]1Sc1ccc(F)cc1Cl)c1ccccc1 | 1.5 | 200 (≈ 528 µM) | 200 (≈ 528 µM) | 37.5 |  |  | 
6 | C[C@@H](NC(=O)N1C(=O)C[C@H]1Sc1ccc(F)c(Cl)c1)c1ccccc1 | 1.5 | 25 (≈ 66 µM) | 25 (≈ 66 µM) | 25 |  |  | 
7 | COc1ccccc1SC1CC(=O)N1C(=O)NCc1ccccc1 (racemic) |  |  |  | 188 |  |  | 
8 | CC[C@H]1OC(=O)[C@H](C)[C@@H](O[C@H]2C[C@@](C)(OC)[C@@H](O)[C@H](C)O2)[C@H](C)[C@@H](O[C@@H]2O[C@H](C)C[C@H](N(C)C)[C@H]2O)[C@](C)(O)C[C@@H](C)CN(C)[C@H](C)[C@@H](O)[C@]1(C)O [AZITHROMYCIN] |  | 0.063 (≈ 0.0841 µM) | 0.125 (≈ 0.167 µM) |  |  |  | 
9 | C[C@@H](NC(=O)N1C(=O)C[C@H]1Sc1ccc(C(F)(F)F)cc1)c1ccccc1 |  | 200 (≈ 507 µM) | 200 (≈ 507 µM) | 100 |  |  | 
10 | C[C@H](NC(=O)N1C(=O)C[C@H]1Sc1ccc(F)c(Cl)c1)c1ccccc1 | 1.5 | 200 (≈ 528 µM) | 200 (≈ 528 µM) | 25 |  |  | 
11 | COc1ccccc1S[C@@H]1CC(=O)N1C(=O)N[C@@H](C)c1ccccc1 | 25 | 100 (≈ 281 µM) | 100 (≈ 281 µM) | 100 |  |  | 
12 | O=C1CC(Sc2ccc(F)cc2F)N1C(=O)NCc1ccccc1 (racemic) |  | 1.6 (≈ 4.59 µM) | 1.6 (≈ 4.59 µM) | 100 |  |  | 
13 | C[C@H](NC(=O)N1C(=O)C[C@H]1Sc1ccc(F)cc1)c1ccccc1 | 12.5 | 50 (≈ 145 µM) | 50 (≈ 145 µM) | 50 |  |  | 
14 | O=C1CC(Sc2ccc(F)c(Cl)c2)N1C(=O)NCc1ccccc1 (racemic) |  | 6.2 (≈ 17 µM) | 6.2 (≈ 17 µM) |  |  |  | 
15 | C[C@@H](NC(=O)N1C(=O)C[C@@H]1Sc1ccc(F)cc1Cl)c1ccccc1 | 0.7 | 25 (≈ 66 µM) | 25 (≈ 66 µM) | 25 |  |  | 
16 | C[C@H](NC(=O)N1C(=O)C[C@@H]1Sc1ccc(F)c(Cl)c1)c1ccccc1 | 1.5 | 25 (≈ 66 µM) | 25 (≈ 66 µM) | 25 |  |  | 
17 | C[C@H](NC(=O)N1C(=O)C[C@@H]1Sc1ccc(F)cc1Cl)c1ccccc1 | 1.5 | 50 (≈ 132 µM) | 50 (≈ 132 µM) | 25 |  |  | 
18 | COc1ccccc1S[C@H]1CC(=O)N1C(=O)N[C@H](C)c1ccccc1 | 25 | 50 (≈ 140 µM) | 50 (≈ 140 µM) | 50 |  |  | 
19 | COc1ccccc1S[C@H]1CC(=O)N1C(=O)N[C@@H](C)c1ccccc1 | 6.2 | 50 (≈ 140 µM) | 50 (≈ 140 µM) | 25 |  |  | 
20 | C[C@@H](NC(=O)N1C(=O)C[C@@H]1Sc1ccc(F)cc1F)c1ccccc1 | 0.7 | 50 (≈ 138 µM) | 50 (≈ 138 µM) | 25 | 25 |  | 
21 | C[C@H](NC(=O)N1C(=O)C[C@@H]1[Se]c1ccccc1)c1ccccc1 | 6.2 | 50 (≈ 134 µM) | 25 (≈ 67 µM) | 25 |  |  | 

Row | Structure (SMILES) | MIC99 [1] [µg/mL] | MBC (Moraxella catarrhalis) [µg/mL] | MIC (Moraxella catarrhalis) [µg/mL] | MIC99 [2] [µg/mL] | MIC [3] [µg/mL] | LCK [4] | Activity [5]
22 | COc1ccccc1S[C@@H]1CC(=O)N1C(=O)N[C@H](C)c1ccccc1 | 25 |  | > 200 | > 100 |  |  | 
23 | C[C@@H](NC(=O)N1C(=O)C[C@H]1Sc1ccccc1F)c1ccccc1 | 12.5 | 25 (≈ 72.6 µM) | 12.5 (≈ 36.3 µM) | 25 |  |  | 
24 | C[C@H](NC(=O)N1C(=O)C[C@H]1Sc1ccc(C(F)(F)F)cc1)c1ccccc1 |  | 200 (≈ 507 µM) | 200 (≈ 507 µM) | 100 |  |  | 
25 | C[C@H](NC(=O)N1C(=O)C[C@H]1Sc1ccc(F)cc1F)c1ccccc1 | 0.7 | 50 (≈ 138 µM) | 50 (≈ 138 µM) | 50 | 50 |  | 
26 | COc1ccc(S[C@@H]2CC(=O)N2C(=O)N[C@H](C)c2ccccc2)cc1 | 25 | 50 (≈ 140 µM) | 50 (≈ 140 µM) | 100 |  |  | 
27 | COc1ccc(SC2CC(=O)N2C(=O)NCc2ccccc2)cc1 (racemic) |  |  |  | 125 |  |  | 
28 | O=C1CC(Sc2c(F)c(F)c(F)c(F)c2F)N1 (racemic) |  |  |  | > 100 |  |  | 
29 | COc1ccccc1SC1CC(=O)N1 (racemic) |  |  |  | > 250 |  |  | 
30 | C[C@H](NC(=O)N1C(=O)C[C@H]1[Se]c1ccccc1)c1ccccc1 | 6.2 | 50 (≈ 134 µM) | 25 (≈ 67 µM) | 25 |  |  | 
31 | O=C1CC(Sc2ccc(F)c(F)c2)N1C(=O)NCc1ccccc1 (racemic) |  |  |  | 6.2 |  |  | 
32 | O=C1CC(Sc2ccc(F)cc2)N1 (racemic) |  |  |  | > 100 |  |  | 
33 | COc1ccc(S[C@@H]2CC(=O)N2C(=O)N[C@@H](C)c2ccccc2)cc1 | 25 | 50 (≈ 140 µM) | 50 (≈ 140 µM) | 50 |  |  | 
34 | C[C@@H](NC(=O)N1C(=O)C[C@H]1Sc1ccc(F)c(F)c1)c1ccccc1 | 0.7 | 12.5 (≈ 34.5 µM) | 12.5 (≈ 34.5 µM) | ≥ 100 |  |  | 
35 | COc1ccc(S[C@H]2CC(=O)N2C(=O)N[C@H](C)c2ccccc2)cc1 | 25 | 50 (≈ 140 µM) | 50 (≈ 140 µM) | 100 |  |  | 
36 | O=C1CC(Sc2ccc(F)cc2Cl)N1 (racemic) |  |  |  | 25 |  |  | 
37 | C[C@@H](NC(=O)N1C(=O)C[C@@H]1[Se]c1ccccc1)c1ccccc1 | 12.5 | 50 (≈ 134 µM) | 25 (≈ 67 µM) | 25 |  |  | 
38 | C[C@@H](NC(=O)N1C(=O)C[C@@H]1Sc1ccc(F)c(Cl)c1)c1ccccc1 | 1.5 | 25 (≈ 66 µM) | 25 (≈ 66 µM) | 25 |  |  | 
39 | C[C@@H](NC(=O)N1C(=O)C[C@H]1Sc1ccc(F)cc1F)c1ccccc1 | 0.3 | 12.5 (≈ 34.5 µM) | 12.5 (≈ 34.5 µM) | 50 | 25 |  | 
40 | O=C1CC(Sc2ccccc2F)N1C(=O)NCc1ccccc1 (racemic) |  |  |  | 25 |  |  | 
41 | C[C@H](NC(=O)N1C(=O)C[C@@H]1Sc1ccc(C(F)(F)F)cc1)c1ccccc1 |  | 200 (≈ 507 µM) | 200 (≈ 507 µM) | 25 | 25 |  | 
42 | O=C1CC(Sc2ccc(F)cc2F)N1 (racemic) |  | 3.1 (≈ 14.4 µM) |  | 3.1 |  |  | 

Row | Structure (SMILES) | MIC99 [1] [µg/mL] | MBC (Moraxella catarrhalis) [µg/mL] | MIC (Moraxella catarrhalis) [µg/mL] | MIC99 [2] [µg/mL] | MIC [3] [µg/mL] | LCK [4] | Activity [5]
43 | C[C@H](NC(=O)N1C(=O)C[C@@H]1Sc1ccccc1F)c1ccccc1 | 6.2 | 200 (≈ 581 µM) | 25 (≈ 72.6 µM) | 25 |  |  | 
44 | C[C@@H](NC(=O)N1C(=O)C[C@@H]1Sc1ccccc1F)c1ccccc1 | 12.5 | 50 (≈ 145 µM) | 25 (≈ 72.6 µM) | 25 |  |  | 
45 | COc1ccc(SC2CC(=O)N2)cc1 (racemic) |  | 200 (≈ 956 µM) | > 200 | 100 |  |  | 
46 | O=C1CC(Sc2ccc(C(F)(F)F)cc2)N1 (racemic) |  |  |  | 25 |  |  | 
47 | COc1ccc(S[C@H]2CC(=O)N2C(=O)N[C@@H](C)c2ccccc2)cc1 | 25 | 50 (≈ 140 µM) | 50 (≈ 140 µM) | > 50 |  |  | 
48 | O=C1CC([Se]c2ccccc2)N1C(=O)NCc1ccccc1 (racemic) |  | 12.5 (≈ 34.8 µM) | 12.5 (≈ 34.8 µM) | 25 |  |  | 
49 | C[C@@H](NC(=O)N1C(=O)C[C@@H]1Sc1ccc(F)c(F)c1)c1ccccc1 | 0.7 | 25 (≈ 69 µM) | 25 (≈ 69 µM) | > 100 |  |  | 
50 | O=C1CC(Sc2ccc(F)cc2)N1C(=O)NCc1ccccc1 (racemic) |  |  |  | 6.2 |  |  | 
51 | O=C1CC([Se]c2ccccc2)N1 (racemic) |  | 6.2 (≈ 27.4 µM) | 6.2 (≈ 27.4 µM) | 25 |  |  | 
52 | C[C@H](NC(=O)N1C(=O)C[C@H]1Sc1ccccc1F)c1ccccc1 | 12.5 | 50 (≈ 145 µM) | 50 (≈ 145 µM) | 50 |  |  | 
53 | C[C@H](NC(=O)N1C(=O)C[C@@H]1Sc1c(F)c(F)c(F)c(F)c1F)c1ccccc1 | 0.7 | 6.2 (≈ 14.9 µM) | 6.2 (≈ 14.9 µM) | 100 |  |  | 
54 | C[C@@H](NC(=O)N1C(=O)C[C@H]1Sc1ccc(F)cc1Cl)c1ccccc1 | 1.5 | 25 (≈ 66 µM) | 25 (≈ 66 µM) | 50 |  |  | 
55 | C[C@@H](NC(=O)N1C(=O)C[C@@H]1Sc1ccc(F)cc1)c1ccccc1 | 12.5 | 25 (≈ 72.6 µM) | 25 (≈ 72.6 µM) | 50 |  |  | 
56 | C[C@H](NC(=O)N1C(=O)C[C@@H]1Sc1ccc(F)cc1F)c1ccccc1 | 0.7 | 12.5 (≈ 34.5 µM) | 12.5 (≈ 34.5 µM) | 12.5 |  |  | 
57 | C[C@@H](NC(=O)N1C(=O)C[C@H]1[Se]c1ccccc1)c1ccccc1 | 12.5 | 50 (≈ 134 µM) | 25 (≈ 67 µM) | 25 |  |  | 
58 | NNC(=O)c1ccncc1 [ISONIAZID] | 0.02 |  |  | 0.07 | 0.08 |  | 
59 | O=C1CC(Sc2ccccc2F)N1 (racemic) |  |  |  | 100 |  |  | 
60 | C[C@H](NC(=O)N1C(=O)C[C@H]1Sc1c(F)c(F)c(F)c(F)c1F)c1ccccc1 | 0.7 | 50 (≈ 120 µM) | 50 (≈ 120 µM) | 100 |  | <3 | Active
61 | O=C1CC(Sc2ccc(F)c(F)c2)N1 (racemic) |  |  |  | 50 |  | <3 | Active
